We go through 1 compound from ChEMBL document CHEMBL1212936, “Discovery of 2-[1-(4-chlorophenyl)cyclopropyl]-3-hydroxy-8-(trifluoromethyl)quinoline-4-carboxylic acid (PSI-421), a P-selectin inhibitor with improved pharmacokinetic properties and oral efficacy in models of vascular injury” (J Med Chem, 2010).

In data set [1] the test system is Cynomolgus monkey. The experiment in a line: Dose normalized AUC in cynomolgus monkey measured per mg of plasma at 5 mg/kg, iv and po. The arrangement: dose 5 mg/kg, route oral. The data set is classed as ADME, organism-based, Macaca fascicularis. The conditions noted are these: in vivo.
The nature of data set [2]: Clearance in C57B6 mouse at 2 mg/kg, iv and 10 mg/kg, po. Type of data set: ADME, organism-based. The conditions noted are these: in vivo.
The nature of data set [3]: Oral bioavailability in cynomolgus monkey at 5 mg/kg. The data set is classed as ADME, organism-based, Macaca fascicularis. Particulars: in vivo.
Data set [4] is described as follows: Half life in cynomolgus monkey liver microsomes. The data set is classed as ADME, Macaca fascicularis, Microsome. Background: Microsomes from liver hold many membrane-bound enzymes, among them those of drug oxidation.
The nature of data set [5]: Aqueous solubility of the compound at pH 6.6. The data set is classed as physicochemical. Particulars: aqueous solution.
Data set [6] can be described thus: Half life in Beagle dog liver microsomes. The data set is classed as ADME, Canis lupus familiaris, Microsome.
Data set [7] can be described thus: Aqueous solubility of the compound at pH 1. The data set is classed as physicochemical. The conditions noted are these: aqueous solution.
Data set [8] concerns Mus musculus. The experiment in a line: Dose normalized AUC in C57B6 mouse measured per mg of plasma at 2 mg/kg, iv and 10 mg/kg, po. Type of data set: ADME, organism-based. Particulars: in vivo.
Data set [9] in a line: Half life in Sprague-Dawley rat liver microsomes. The data set is classed as ADME, Microsome.
A short description of data set [10]: Oral bioavailability in Sprague-Dawley rat at 10 mg/kg. Particulars: in vivo. Type of data set: ADME, organism-based.
Data set [11] can be described thus: Clearance in Sprague-Dawley rat at 3 mg/kg, iv and 10 mg/kg, po. The data set is classed as ADME, organism-based. Particulars: in vivo.
Data set [12] in a line: Oral bioavailability in Beagle dog at 10 mg/kg. Type of data set: ADME, organism-based, Canis lupus familiaris. Particulars: in vivo.
A short description of data set [13]: Aqueous solubility of the compound at pH 4.5. Type of data set: physicochemical. Particulars: aqueous solution.
Data set [14] is described as follows: Aqueous solubility of the compound at pH 7.4. The data set is classed as physicochemical. Particulars: buffer.
The nature of data set [15]: Half life in C57B6 mouse liver microsomes. The data set is classed as ADME, Microsome.
A short description of data set [16]: Oral bioavailability in C57B6 mouse at 10 mg/kg. The conditions noted are these: in vivo. The data set is classed as ADME, organism-based.
Data set [17] is described as follows: Clearance in Beagle dog at 2 mg/kg, iv and 10 mg/kg, po. Type of data set: ADME, organism-based, Canis lupus familiaris. The conditions noted are these: in vivo.
For data set [18], the system named is Rattus norvegicus. As to the kind of experiment: Dose normalized AUC in Sprague-Dawley rat measured per mg of plasma at 3 mg/kg, iv and 10 mg/kg, po. The data set is classed as ADME, organism-based. The conditions noted are these: in vivo.
Data set [19] deals with Canis familiaris. The experiment in a line: Dose normalized AUC in Beagle dog measured per mg of plasma at 2 mg/kg, iv and 10 mg/kg, po. Type of data set: ADME, organism-based, Canis lupus familiaris. The conditions noted are these: in vivo.
Data set [20] can be described thus: Aqueous solubility of the compound at pH 9. The data set is classed as physicochemical. Particulars: buffer.
A short description of data set [21]: Half life in human liver microsomes. Type of data set: ADME, Microsome.
In data set [22] the target is T1, P-selectin glycoprotein ligand 1 (Homo sapiens, UniProt Q14242).
T1 sequence (Q14242 whole entry): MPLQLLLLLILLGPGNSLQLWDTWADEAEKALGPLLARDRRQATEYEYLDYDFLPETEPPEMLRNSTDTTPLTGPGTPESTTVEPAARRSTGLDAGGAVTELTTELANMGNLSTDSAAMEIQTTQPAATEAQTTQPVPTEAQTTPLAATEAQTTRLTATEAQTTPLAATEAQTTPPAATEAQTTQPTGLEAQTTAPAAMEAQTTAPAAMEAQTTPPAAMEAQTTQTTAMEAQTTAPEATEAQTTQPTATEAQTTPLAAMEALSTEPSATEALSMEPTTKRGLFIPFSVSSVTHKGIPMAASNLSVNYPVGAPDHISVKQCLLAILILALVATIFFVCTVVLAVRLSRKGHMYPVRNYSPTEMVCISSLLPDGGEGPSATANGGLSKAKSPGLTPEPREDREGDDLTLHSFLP
As to the kind of experiment: Inhibition of recombinant PSGL-1 by surface plasmon resonance assay. On the technique in general: Surface plasmon resonance follows binding to a sensor surface in real time, without labels.

Each structure is given as a SMILES string. Converted amounts (≈) assume the structure as drawn.

Usually AUC stands for concentration integrated over time. For orientation: bioavailability means dose-corrected exposure relative to a reference, in per cent. For orientation: half-life means the time needed for the level to fall by half in the phase considered. Usually solubility stands for the dissolved amount per volume that the medium holds. A word on the IC50: it is the midpoint of a concentration-inhibition curve. As for `O=C(O)c1c(O)c(Cc2ccc(Cl)cc2)nc2c3c(ccc12)CCCC3` [PSI-697], the AUC in [1] is 1202 ng·h/mL; in data set [8] it was 1510 ng·h/mL; in data set [18], 440 ng·h/mL; in data set [19], 11666 ng·h/mL. Further, the figures for the clearance in data set [2], in data set [11] and in [17] were 11.6 mL/min/kg, 11 mL/min/kg and 0.9 mL/min/kg, respectively. Further, the bioavailability in [3] was 40%; in data set [10], 27%; in data set [12] it was 58%; in data set [16], 100%. Also, the half-life was 44 min in [4]; above 60 min in data set [6]; 2 min in [9]; 14 min in [15]; above 60 min in data set [21]. For the same compound, the solubility in data set [5] was below 10 µg/mL; in data set [7], below 1 µg/mL; in data set [13] it was below 1 µg/mL; in data set [14], 90 µg/mL (≈ 245 µM); in data set [20], 75 µg/mL (≈ 204 µM). In addition, the IC50 in [22] stood at 150 µM.
